# Results reported in patent publication US6114335A, “Benzoylguanidine derivatives, process for their preparation their use in the preparation of medicines” (Boehringer Ingelheim KG, priority 1996, dated 2000).
# Target: T1, Na^+ /H^+ Exchanger (Homo sapiens, UniProt P19634)
# T1 construct: Human Intestinal Cancer Cells (HT-29); endogenous in cells; host or cells: HT-29
# Assay: Inhibition of the Na^+ /H^+ Exchanger in Human Intestinal Cancer Cells (HT-29)
# Format: cell-based
# Conditions: HT-29 cells; BCECF fluorescence, cytoplasmic pH; 4 minutes at 37° C., pH 7.0
# Description: Inhibition of the Na^+ /H^+ Exchanger in Human Intestinal Cancer Cells (HT-29):
# HT-29 cells were incubated in growth medium at 37° C., 5% CO2. After 3-5 days the growth medium was removed, the cells were washed and charged with 7.5 μM BCECF-AM (pH-sensitive fluorescent dye) at 37° C. without any CO2. After 30 minutes the cells were washed and acidified with the following medium: 70 mM choline chloride, 20 mM NH4 Cl, […], 1.8 mM CaC2, 5 mM glucose and 15 mM HEPES, pH 7.5.
# After 6 minutes incubation at 37° C. without CO2, the cells were washed and incubated for 5 minutes with washing medium: 120 mM choline chloride, 5 mM KCl, 1 mM MgCl2, 1.8 mM CaCl2, 5 mM glucose and 15 mM MOPS, pH 7.0. The washing medium was removed and control medium was added with or without the test compound: 120 mM NaCl, 5 mM KCl, 1 mM MgCl2, 1.8 mM CaCl2, 5 mM glucose, 15 mM MOPS, pH 7.0.
# The cells were incubated for 4 minutes at 37° C. without CO2 and measured by fluorimetry (CytoFluor 2350). The fluorescence of the dye BCECF was measured at the excitation wavelengths of 485 nm (pH sensitive) and 440 nm (non pH-sensitive) and at the emission wavelength of 530 nm. The cytoplasmic pH was calculated from the ratio of fluorescences at 485 and 440 nm. The fluorescence ratio was calibrated by measuring the fluorescence signal after equilibration of external and internal pH with nigericin.
# T1 sequence (P19634 whole entry): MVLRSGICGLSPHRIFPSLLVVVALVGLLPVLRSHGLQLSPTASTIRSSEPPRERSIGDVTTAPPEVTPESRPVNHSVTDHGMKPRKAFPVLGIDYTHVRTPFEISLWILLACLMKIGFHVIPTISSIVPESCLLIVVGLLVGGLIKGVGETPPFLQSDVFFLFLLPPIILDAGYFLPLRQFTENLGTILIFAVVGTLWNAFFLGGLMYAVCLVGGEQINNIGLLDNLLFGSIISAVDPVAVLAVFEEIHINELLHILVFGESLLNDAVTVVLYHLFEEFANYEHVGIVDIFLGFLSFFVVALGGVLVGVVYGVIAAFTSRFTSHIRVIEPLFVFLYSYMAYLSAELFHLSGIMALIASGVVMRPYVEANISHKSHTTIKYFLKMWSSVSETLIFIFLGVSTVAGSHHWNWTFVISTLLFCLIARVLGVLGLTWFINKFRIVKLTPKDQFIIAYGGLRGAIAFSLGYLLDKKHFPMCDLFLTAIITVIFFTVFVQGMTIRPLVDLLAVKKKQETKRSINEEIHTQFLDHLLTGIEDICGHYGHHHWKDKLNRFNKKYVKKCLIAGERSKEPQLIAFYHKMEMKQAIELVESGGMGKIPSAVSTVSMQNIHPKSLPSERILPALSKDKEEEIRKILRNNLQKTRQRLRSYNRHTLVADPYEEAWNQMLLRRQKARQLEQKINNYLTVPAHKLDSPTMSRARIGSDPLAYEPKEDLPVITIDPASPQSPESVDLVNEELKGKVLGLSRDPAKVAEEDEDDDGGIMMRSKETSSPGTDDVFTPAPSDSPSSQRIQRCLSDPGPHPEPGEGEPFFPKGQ
row,IC50 [µM],SMILES
1,0.031,CS(=O)(=O)c1cc(C(=O)N=C(N)N)ccc1N1CCN(C(=O)c2cccs2)CC1 [Example 4]
2,0.5,CN(C)CCN1CCN(c2ccc(C(=O)N=C(N)N)cc2S(C)(=O)=O)CC1 [Example 1]
3,0.029,CS(=O)(=O)c1cc(C(=O)N=C(N)N)ccc1N1CCN(C(=O)c2ccco2)CC1 [Example 3]
